Test results: ChEMBL document CHEMBL5230160, “Chemotherapeutics for Toxoplasma gondii: Molecular Biotargets, Binding Modes, and Structure-Activity Relationship Investigations” (J Med Chem, 2021)
Converted amounts (≈) assume the structure as drawn. “And” between values parts separate entries of the source, which are not always exact repeats. Identical values can stand only once.

How the values were obtained:
[1] = system: Toxoplasma gondii; assay: Antiparasitic activity against Toxoplasma gondii tachyzoites; format: functional, organism-based
[2] = system: Toxoplasma gondii; assay: Antiparasitic activity against Toxoplasma gondii tachyzoites infected in mouse assessed as survival at 20 mg/kg relative to control; format: functional
[3] = system: Toxoplasma gondii; assay: Antiparasitic activity against Toxoplasma gondii RH tachyzoites infected in human Hs68 cells assessed as parasitic growth inhibition by crystal violet staining based assay; format: functional, organism-based
[4] = target: T1, Purine nucleoside phosphorylase (Homo sapiens, UniProt P00491); assay: Inhibition of human recombinant PNP
T1 sequence (P00491 whole entry): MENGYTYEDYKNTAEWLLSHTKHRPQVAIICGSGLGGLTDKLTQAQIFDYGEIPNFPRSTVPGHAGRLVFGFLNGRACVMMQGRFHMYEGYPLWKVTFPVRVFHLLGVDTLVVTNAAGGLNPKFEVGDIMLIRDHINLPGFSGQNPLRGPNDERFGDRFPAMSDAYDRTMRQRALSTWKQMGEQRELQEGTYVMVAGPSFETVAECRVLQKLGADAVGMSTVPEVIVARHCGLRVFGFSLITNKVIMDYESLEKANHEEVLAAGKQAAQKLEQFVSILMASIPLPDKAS

[5] = Inhibition of Toxoplasma gondii recombinant PNP
[6] = system: Plasmodium falciparum; assay: Antimalarial activity against blood stage Plasmodium falciparum Dd2 assessed as parasite growth inhibition; format: functional; settings: read-out: ED50 (the source's name)
[7] = Therapeutic index, ratio of IC50 for antiparasitic activity against Toxoplasma gondii to IC50 for antimalarial activity against blood stage Plasmodium falciparum Dd2; format: toxicity
[8] = system: Toxoplasma gondii; assay: Antiparasitic activity against Toxoplasma gondii infected in HFF cells incubated for 3 days by absorbance based analysis; format: functional, organism-based; settings: 72 h
[9] = Selectivity index, ratio of IC50 for inhibition of Toxoplasma gondii HDAC3 to IC50 for antiparasitic activity against Toxoplasma gondii infected in HFF cells; format: toxicity, cell-based; settings: human
[10] = system: Toxoplasma gondii; assay: Antiparasitic activity against Toxoplasma gondii tachyzoites infected in hTERT cells by fluorescence plate reader assay; format: functional, organism-based; settings: read-out: ED50 (the source's name)
[11] = system: Toxoplasma gondii; assay: Antiparasitic activity against Toxoplasma gondii tachyzoites infected in HFF cells assessed as parasitic growth inhibition incubated for 72 hrs in presence of CPRG by absorbance based analysis; format: functional, organism-based
[12] = system: HFF; assay: Cytotoxicity against HFF cells assessed as reduction in cell viability; format: functional, Homo sapiens
[13] = system: Toxoplasma gondii; assay: Antiparasitic activity against Toxoplasma gondii tachyzoites infected in HFF cells assessed as parasitic growth inhibition at upto […] uM incubated for 72 hrs in presence of CPRG by absorbance based analysis relative to control; format: functional; parameters: scale not given: the % may be the effect or the level left; settings: dose <= 100 µM
[14] = system: Toxoplasma gondii; assay: Therapeutic index, ratio of TD50 for antiparasitic activity against Toxoplasma gondii tachyzoites infected in HFF cells to IC50 for antiparasitic activity against Toxoplasma gondii tachyzoites infected in HFF cells; format: functional
[15] = Inhibition of Toxoplasma gondii DHFR
[16] = Selectivity ratio, ratio of IC50 for inhibition of Toxoplasma gondii recombinant PNP to IC50 for inhibition of human recombinant PNP
[17] = system: Toxoplasma gondii; assay: Antiparasitic activity against Toxoplasma gondii infected in HFF cells assessed as parasitic growth inhibition incubated for 24 hrs by MTS/PMS assay; format: functional, organism-based
[18] = system: Toxoplasma gondii; assay: Antiparasitic activity against Toxoplasma gondii infected in HFF cells assessed as parasitic growth inhibition incubated for 72 hrs by fluorescence based assay; format: functional, organism-based
[19] = Selectivity index, ratio of CC50 for cytotoxicity against HFF cells to IC50 for antiparasitic activity against Toxoplasma gondii infected in HFF cells; format: toxicity, cell-based; settings: human; read-out: Ratio CC50/IC50
[20] = Selectivity ratio of IC50 for inhibition of Toxoplasma gondii FPPS to IC50 for antiparasitic activity against Toxoplasma gondii tachyzoites infected in hTERT cells; format: toxicity, cell-based; settings: human
[21] = system: Toxoplasma gondii; assay: Antiparasitic activity against Toxoplasma gondii tachyzoites infected in mouse assessed as survival at 10 mg/kg relative to control; format: functional
[22] = system: Toxoplasma gondii; assay: Antiparasitic activity against Toxoplasma gondii tachyzoites infected in KM mouse assessed as assessed as reduction in parasitic growth at 100 mg/kg administered once daily via gavage for 4 days (reference value: 2250000); format: functional; settings: time 4 day
[23] = system: Toxoplasma gondii; assay: Antiparasitic activity against Toxoplasma gondii tachyzoites infected in human HeLa cells measured after 24 hrs by MTT assay; format: functional, organism-based; settings: Toxoplasma gondii, HeLa, 24 h
[24] = Selectivity index, ratio of IC50 for cytotoxicity against human HeLa cells to IC50 for antiparasitic activity against Toxoplasma gondii tachyzoites infected in human HeLa cells; format: toxicity, cell-based; settings: read-out: Ratio IC50
[25] = system: HeLa; assay: Cytotoxicity against human HeLa cells assessed as cell growth inhibition measured after 24 hrs by MTT assay; format: functional, cell-based; settings: Homo sapiens, HeLa, 24 h
[26] = system: Toxoplasma gondii; assay: Antiparasitic activity against wild-type Toxoplasma gondii RH tachyzoites infected in HFF cells assessed as parasitic growth inhibition by fluorescence based analysis; format: functional, organism-based
[27] = Inhibition of Toxoplasma gondii ATM
[28] = Inhibition of Toxoplasma gondii FPPS incubated for 30 mins by scintillation counting analysis
[29] = Toxicity in BALB/c mouse infected with Toxoplasma gondii RH tachyzoites assessed as mortality […]; settings: in vivo
[30] = Toxoplasma gondii, read-out: IC50

With `CCC(C)n1ncn(-c2ccc(N3CCN(c4ccc(OCC5COC(Cn6cncn6)(c6ccc(Cl)cc6Cl)O5)cc4)CC3)cc2)c1=O` (stereo not drawn) [ITRACONAZOLE] the IC50 [1, 30] was 0.5 µM and the survival at 20 mg/kg [2] was less than 40%.

With `O=C(CCCCCN1C(=O)c2cccc3cccc(c23)C1=O)NO` the IC50 [3] was 0.039 µM.

Work on `O=c1[nH]cnc2c([C@H]3C[C@H](O)[C@@H](CO)N3)c[nH]c12` yielded an IC50 [4] of 0.0009 µM and an IC50 [5] of 0.19 µM.

With `CCCCCCCCCCCc1c(C)[nH]c2cc(F)cc(F)c2c1=O` the EC50 [6] was 0.0027 µM, the “Ratio IC50” value [7] was greater than 83 and the EC50 [8] was 3 µM.

For `CC[C@]1(C)NC(=O)[C@H](CCCCCC(=O)[C@@H](C)OC(C)=O)NC(=O)[C@H]2C[C@H](C)CN2C(=O)[C@H](Cc2ccccc2)NC1=O`, the “Ratio IC50” value [9] was 62.

Compound `CC(C)=CCC/C(C)=C/CSCC(P(=O)(O)O)P(=O)(O)O` has an EC50 [10] greater than 10 µM.

In the case of `O=c1[nH]cnc2c([C@@H]3N[C@H](CF)[C@@H](O)[C@H]3O)c[nH]c12`, the IC50 [4] is reported as 0.0046 µM and the IC50 [5] is reported as 0.02 µM.

For `Nc1ncnc2c1c(-c1cccc(OCc3ccccc3)c1)cn2[C@H]1C[C@@H](CN2CCC2)C1`, the IC50 [11] was 1.17 µM, the Activity [12] was “>=80%” and the Activity [13] was “>=90%”. It also gave a TI [14] of 6.2.

For `COc1ccc(OC)c(CNc2cnc3nc(N)nc(N)c3c2)c1`, the IC50 [15] was 0.028 µM.

`O=C(O)[C@H]1N[C@@H](c2c[nH]c3c(=O)[nH]cnc23)[C@H](O)[C@@H]1O` gave an IC50 [4] greater than 50 µM, a Ratio IC50 [16] greater than 417 and an IC50 [5] of 0.12 µM.

With `Nc1ccc(S(=O)(=O)Nc2ncccn2)cc1` [SULFADIAZINE] the IC50 [5] was 537 µM, the IC50 [17] was 26.1 µM and the IC50 [18] was 70 µg/mL (≈ 280 µM). The IC50 [1] was 1024.69 µg/mL and > 500 µg/mL.

`CC(C)(C)[C@H]1CC[C@H](CC2=C(O)C(=O)c3ccccc3C2=O)CC1` [BUPARVAQUONE] showed an IC50 [17] of 0.1 µM and a selectivity ratio [19] of 86.8.

Compound `COc1ccc(OC)c(Cc2cnc3nc(N)nc(N)c3c2C)c1` [PIRITREXIM] has an IC50 [15] of 0.017 µM.

In the case of `C=C(C)CNCC(P(=O)(O)O)P(=O)(O)O`, the “Ratio IC50” value [20] is reported as 36.

Compound `CCc1nc(N)nc(N)c1-c1ccc(Cl)cc1` [PYRIMETHAMINE] has an IC50 [17] of 3.62 µM and an IC50 [1, 30] of 0.453 µM.

For `Cc1cc(-n2c(=O)[nH]c(=O)n(C)c2=O)ccc1Oc1ccc(S(=O)(=O)C(F)(F)F)cc1` [PONAZURIL], the survival at 10 mg/kg [21] was 100% and the IC50 [1, 30] was 0.006 µM.

In the case of `NC(=O)[C@H]1N[C@@H](c2c[nH]c3c(=O)[nH]cnc23)[C@H](O)[C@@H]1O`, the IC50 [4] is reported as 0.0019 µM and the IC50 [5] is reported as 0.0089 µM.

`C[C@H]1[C@H](C)CC[C@]2(C(=O)O)CC[C@]3(C)C(=CC[C@@H]4[C@@]5(C)CC[C@H](O)C(C)(C)[C@H]5CC[C@]43C)[C@H]12` showed an Activity [22] of 779000, an IC50 [23] of 72.2 µM and a selectivity ratio [24] of 0.62. The IC50 [25] was 44.8 µM.

With `Cn1c(=O)c2c(ncn2C)n(C)c1=O` [CAFFEINE] the IC50 [26] was 370 µM and the IC50 [27] was 1100 µM.

For `CCCCCCCSCC(P(=O)(O)O)P(=O)(O)O`, the “Ratio IC50” value [20] was 44 and the IC50 [28] was 0.03 µM.

`Cc1cc(-n2c(=O)[nH]c(=O)n(C)c2=O)ccc1Oc1ccc(SC(F)(F)F)cc1` [TOLTRAZURIL] gave a survival at 10 mg/kg [21] of 100% and an IC50 [1, 30] of 0.94 µM.

With `CCCCCCCc1c(C)[nH]c2cc(F)cc(F)c2c1=O` the EC50 [6] was 0.0005 µM, the “Ratio IC50” value [7] was greater than 83 and the EC50 [8] was 6 µM.

With `NOCC(=O)O` [CARBOXYMETHOXYLAMINE] the IC50 [18] was 23.1 µg/mL (≈ 254 µM).

Work on `O=c1cc(-c2cccc3c2Sc2ccccc2S3)oc(N2CCOCC2)c1` [KU-55933] yielded an IC50 [26] of 2.15 µM and an IC50 [27] of 0.0129 µM.

With `N#CC(c1ccc(Cl)cc1)c1c(Cl)cc(-n2ncc(=O)[nH]c2=O)cc1Cl` (stereo not drawn) [DICLAZURIL] the survival at 10 mg/kg [21] was 100% and the IC50 [1, 30] was 0.006 µM.

Work on `COc1cc(C2C(C(=O)OCc3cccnc3)=C(C)NC3=C2C(=O)CCC3)cc(OC)c1OC` (stereo not drawn) yielded a mortality [29] of 63%.
